Source: patent publication US5578596A, “2-alkoxy-5,6,7,8-tetrahydroquinoxaline derivatives, and production method and use thereof” (Asahi Kasei Kogyo Kabushiki Kaisha, priority 1992, dated 1996)

What was measured:
[1] = target: T1, serotonin 1A (5HT1A) receptor (Rattus norvegicus, UniProt P19327); assay: Affinity for serotonin 1A (5HT1A) receptor: inhibition of 3H-8-OH-DPAT binding to rat hippocampal membrane fraction; conditions: test compound as hydrochloride
T1 construct: The resultant precipitate was used as a rat hippocampal membrane fraction in the following procedures; from tissue; host or cells: hippocampal membrane fraction of male SD rat (7 weeks old; animals from Charles River)
T1 sequence (P19327 1-422): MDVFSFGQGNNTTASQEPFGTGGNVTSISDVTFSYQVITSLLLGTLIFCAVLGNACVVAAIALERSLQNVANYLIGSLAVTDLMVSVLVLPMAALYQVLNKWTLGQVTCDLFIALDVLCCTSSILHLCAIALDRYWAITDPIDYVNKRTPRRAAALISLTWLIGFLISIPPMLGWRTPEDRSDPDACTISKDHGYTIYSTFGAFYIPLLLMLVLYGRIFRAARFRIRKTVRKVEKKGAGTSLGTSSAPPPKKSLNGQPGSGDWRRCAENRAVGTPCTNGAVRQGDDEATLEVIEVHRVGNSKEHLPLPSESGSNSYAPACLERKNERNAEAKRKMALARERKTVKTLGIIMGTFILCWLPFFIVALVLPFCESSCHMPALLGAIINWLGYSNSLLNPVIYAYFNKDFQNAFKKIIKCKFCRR
Description: 1. Affinity for serotonin 1A (5HT1A) receptor
(A) Preparation of rat hippocampal membrane fraction
A male SD strain rat (7-week old; Charles River) was decapitated, and brain was taken out therefrom quickly. 50 mM Tris-HCl buffer (pH 7.4) was added to the brain under ice cooling to obtain a suspension. The resultant suspension was homogenized, and then subjected to centrifugation at 48000 g for 15 minutes, to thereby obtain a precipitate. The precipitate was resuspended in the same Tris-HCl buffer as used above. The resultant suspension was incubated at 30° C. for 20 minutes to decompose endogenous serotonin of the rat hippocampal membrane, followed by centrifugation at 48000 g for 15 minutes to thereby obtain a precipitate. The resultant precipitate was used as a rat hippocampal membrane fraction in the following procedures.
(B) Method for the evaluation of the binding ability of ^3 H-8-hydroxy-dipropylaminotetralin (^3 H-8-OH-DPAT) to serotonin 1A receptor
The rat hippocampal membrane fraction prepared in step (A) above (about 100 to 200 μg in terms of proteins) was reacted with 0.5 nM (final concentration) ^3 H-8-OH-DPAT (which is commercially available from DuPont-NEN Research Products) and 10 μM (final concentration) pargyline (which is commercially available from Sigma Chemical Company) at 30° C. for 30 minutes to effect a reaction. The resultant reaction mixture was subjected to suction filtration using a Whatman GF/C filter, to thereby terminate the reaction. The radio-activity of ^3 H-8-OH-DPAT adsorbed on the filter was determined using a liquid scintillation counter. The obtained value is regarded as a total amount (TB) of specifically binding ^3 H-8-OH-DPAT and non-specifically binding ^3 H-8-OH-DPAT.
On the other hand, substantially the same procedure as mentioned above was repeated, except that 10 μM (final concentration) serotonin was added to the ^3 H-8-OH-DPAT and pargyline. The radioactivity of ^3 H-8-OH-DPAT adsorbed on the filter was determined in the same manner as mentioned above. The obtained value is regarded as the amount (NB) of non-specifically binding ^3 H-8-OH-DPAT.
Further, substantially the same procedure as mentioned above was repeated, except that, instead of serotonin, a test compound was used in a predetermined concentration. The radioactivity of ^3 H-8-OH-DPAT adsorbed on the filter was determined in the same manner as mentioned above. The obtained value is regarded as the amount (DTB) of binding ^3 H-8-OH-DPAT.
(C) Calculation of Ki value
The inhibition ratio of the test compound (at a certain concentration) against the binding of 3H-8-OH-DPAT (the inhibition ratio is hereinafter referred to simply as "binding inhibition ratio") was calculated according to the following formula:
Binding inhibition ratio (%)=100-(DTB-NB).div.(TB-NB)×100
With respect to each of the test compounds, the binding inhibition ratios at various concentrations (from a higher concentration to a lower concentration) were determined. The binding inhibition ratios were plotted, taking the logarithmic value of the concentration of test compound as the abscissa value, and the binding inhibition ratio as the ordinate value. Then, a curve was drawn by non-linear least square method.
The Ki value was determined according to the following formula:
[L] is the concentration (0.2 nM) of a radioactive ligand (^3 H-8-OH-DPAT) used in the test;

[2] = test system: Suncus murinus (motion sickness emesis); assay: Activities against motion sickness: acceleration-stimulus induced emesis in suncus; type: in vivo; conditions: 1 mg/kg intraperitoneal, 30 min before acceleration-stimulus (4 cm, 1 Hz), observed 10 min; hydrochloride; 4 suncus
Text: The activities of individual compounds against motion sickness were examined using Suncus murinus. Suncus murinus is a small animal belonging to the Soricidae family. It has been known that suncus is likely to suffer from motion sickness and is susceptible to occurrence of emesis [see "Seitai-no-kagaku (Science of living body)", 41, 538 (1990)]. Suncus is likely to show symptoms like the symptoms of human motion sickness under the stimulus of simple acceleration, finally leading to the occurrence of emesis. It has been recognized that motion sickness is caused by the occurrence of disorder in information, such as vision, equilibrium sense and the like, or by a stimulus which has never been memorized. Further, it has been recognized that the disorder in the inner earvestibular nucleus pathway and the high-order function of brain take part in the occurrence of motion sickness. Therefore, medicines capable of suppressing the occurrence of emesis of suncus would be useful for preventing and treating motion sickness, space sickness, emesis, dizziness and the like.
In this test, test compounds were individually administered intraperitoneally to suncus.
The time for occurrence of emesis was measured with respect to each of the test compounds, and the results are shown in Table 3.

cisplatin-induced emesis = assay: Suppression of cisplatin-induced emesis in suncus; type: in vivo; conditions: hydrochloride 0.3 mg/kg intraperitoneal, 30 min before cisplatin 20 mg/kg i.p.
Description: (§1) It has been known that cisplatin and nicotine have an emesis-inducing activity. In this test, it was investigated as to whether the hydrochloride of compound (1) of the present invention has the activity to suppress the occurrence of emeses which are induced by these drugs.
Cisplatin was intraperitoneally administered to each of four suncuses (20 mg/kg). As a result, with respect to all of the suncuses, emesis occurred 10 to 20 times within 40 to 70 minutes after the administration of the cisplatin.

nicotine-induced emesis = assay: Suppression of nicotine-induced emesis in suncus; type: in vivo; conditions: hydrochloride 3 mg/kg intraperitoneal, 30 min before nicotine 4 mg/kg s.c.
Description: as §1
On the other hand, nicotine was subcutaneously administered to four suncuses (4 mg/kg). As a result, with respect to all of the suncuses, emesis was induced 11 to 29 times within 3 to 10 minutes after the administration of the nicotine.

[3] = test system: immobile state of rat in forced swimming test; assay: Anti-depression activity evaluated by forced swimming test using rats; type: in vivo, male Wistar strain rats; conditions: hydrochloride; for Time spent in immobile state: 30 min before test, observed 6 min, 6 rats, saline control 236 sec.
Description: 4. Anti-depression activity (which was evaluated by forced swimming test using rats)
When a rat is put in a water tank, the rat struggles for its life to get out of the water (that is, the rat starts a "forced swimming"). If the rat finds that it is impossible for him to get out, the rat stops swimming and assumes an immobile state. It has been known that the administration of an antidepressant can cause a violent swimming motion in the rat for getting out of the water, with a result that the time spent in the immobile state is shortened. The shortening of the time in the immobile state of the rat in the forced swimming test by the administration of the antidepressant is well correlated to the clinical anti-depression effect. Accordingly, in developing antidepressants, the forced swimming test using a rat is the most reliable screening method. In the present test, male Wistar strain rats were used. Compound 300 of the present invention (in the form of the hydrochloride thereof) was intraperitoneally administered to a rat. 30 minutes after the administration, the rat was put in a water tank and then, observed for 6 minutes. The time for the rat to keep the immobile state was measured.

[4] = known, background; cited from earlier work

Compound | Ki [1] [nM] | Time for occurrence of emesis [2] | occurrence of cisplatin-induced emesis (cisplatin-induced emesis) | occurrence of nicotine-induced emesis (nicotine-induced emesis) | time for the rat to keep the immobile state (in words) ([3]; 1 mg/kg and 10 mg/kg) | Time spent in immobile state ([3]; 1 mg/kg intraperitoneal) [s] | Time spent in immobile state ([3]; 10 mg/kg intraperitoneal) [s] | effect on emesis induced by drugs other than cisplatin [4] | effect on motion sickness [4] | suppression of cisplatin-induced emesis [4]
c1ccc(N2CCN(CCCCOc3cnc4c(n3)CCCC4)CC2)nc1 [Compound 300, 2-[4-{4-(2-Pyridyl)-1-piperazinyl}butoxy]-5,6,7,8-tetrahydroquinoxaline] | 1.6 | Emesis did not occur | completely suppressed | completely suppressed | remarkably shortened | 173 | 163 | – | – | –
Cc1nccn1CC1CCc2c(c3ccccc3n2C)C1=O (stereo not shown) [ondansetron] | – | – | – | – | – | – | – | no effect | no effect | effective for suppressing cisplatin-induced emesis
